Patent US8329686B2, “Isatin analogues and uses therefor” (Washington University, priority 2006, dated 2012)
Where two headings read alike, the source gives them in different places.

How the values were obtained:
caspase 7 = target: T1, caspase 7 (Homo sapiens, UniProt P55210); assay: Enzyme inhibition assay, caspase 7 (fluorogenic Ac-DEVD-AMC); format: biochemical
T1 construct: purchased Sigma-Aldrich (St. Louis, Mo.)
T1 sequence (P55210 24-198 limits assumed): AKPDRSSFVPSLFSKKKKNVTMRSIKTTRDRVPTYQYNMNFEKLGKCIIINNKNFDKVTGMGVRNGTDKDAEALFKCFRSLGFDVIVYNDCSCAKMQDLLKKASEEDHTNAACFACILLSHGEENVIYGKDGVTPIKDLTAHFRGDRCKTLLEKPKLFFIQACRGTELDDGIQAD
T1 sequence (P55210 207-303 limits assumed): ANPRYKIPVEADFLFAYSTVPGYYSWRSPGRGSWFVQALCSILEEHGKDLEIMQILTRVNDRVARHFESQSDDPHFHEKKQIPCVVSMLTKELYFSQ

caspase-3 = target: T2, caspase-3 (Homo sapiens, UniProt P42574); assay: Enzyme inhibition assay, caspase 3 (fluorogenic Ac-DEVD-AMC); format: biochemical
T2 construct: purchased Sigma-Aldrich (St. Louis, Mo.)
T2 sequence (P42574 29-175 limits assumed): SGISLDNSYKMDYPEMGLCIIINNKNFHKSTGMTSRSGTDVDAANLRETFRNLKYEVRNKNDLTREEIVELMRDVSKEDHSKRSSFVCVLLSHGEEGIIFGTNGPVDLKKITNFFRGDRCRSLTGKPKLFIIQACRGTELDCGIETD
T2 sequence (P42574 176-277 limits assumed): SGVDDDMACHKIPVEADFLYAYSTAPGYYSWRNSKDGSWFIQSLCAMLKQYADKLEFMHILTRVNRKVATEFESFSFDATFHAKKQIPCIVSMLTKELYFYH

caspase 6 = target: T3, caspase 6 (Homo sapiens, UniProt P55212); assay: Enzyme inhibition assay, caspase 6 (fluorogenic Ac-VEID-AMC); format: biochemical
T3 construct: purchased Sigma-Aldrich (St. Louis, Mo.)
T3 sequence (P55212 24-179 limits assumed): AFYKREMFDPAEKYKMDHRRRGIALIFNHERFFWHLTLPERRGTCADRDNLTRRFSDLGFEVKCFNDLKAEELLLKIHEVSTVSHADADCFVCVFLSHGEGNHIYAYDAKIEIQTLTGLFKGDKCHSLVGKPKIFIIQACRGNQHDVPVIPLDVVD
T3 sequence (P55212 194-293 limits assumed): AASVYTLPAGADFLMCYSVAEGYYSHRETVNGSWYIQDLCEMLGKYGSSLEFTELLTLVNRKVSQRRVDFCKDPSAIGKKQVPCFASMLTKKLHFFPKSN
Method: (§1) Enzyme Assays. Inhibition of recombinant human caspase-3 and other caspases by the isatin analogues was assessed using a fluorometric assay by measuring the accumulation of a fluorogenic product, 7-amino-4-methylcoumarin (7-AMC).
(§2) Enzyme Inhibition Assays. Recombinant human caspases (3, 6, 7, and 8) and their peptide-specific substrates (Ac-DEVDAMC, Ac-VEID-AMC, Ac-DEVD-AMC, and Ac-IETD-AMC, respectively) were purchased from Sigma-Aldrich (St. Louis, Mo.) with the exception of caspase 1 and its substrate (Ac-YVAD-AMC), which were obtained from BIOMOL Research Laboratories (Plymouth Meeting, Pa.). The enzymatic activity of caspases was determined by measuring the accumulation of the fluorogenic product 7-amino-4-methylcoumarin (AMC). All assays were prepared in 96-well format at a volume of 210 μL per well and consisted of 100 mM Na+ HEPES (pH 7.4), 10% sucrose, 100 mM NaCl, 0.1% CHAPS, 5 mM 2-mercaptoethanol, 2 mM EDTA, 10 μM Ac-YVAD-AMC (caspase 1); 20 mMNa^+ HEPES (pH 7.4), 10% sucrose, 100 mMNaCl, 0.1% CHAPS, 2 mM EDTA, 10 μM Ac-DEVD-AMC (caspase 3); 20 mM Na^+ HEPES (pH 7.4), 10% sucrose, 100 mM NaCl, 0.1% CHAPS, 2 mM EDTA, 10 μM Ac-VEID-AMC (caspase 6); 20 mM Na+ HEPES (pH 7.4), 100 mM NaCl, 10% sucrose, 0.1% CHAPS, 5 mM 2-mercaptoethanol, 2 mM EDTA, 10 μM Ac-DEVD-AMC (caspase 7); 20 mM Na+ HEPES (pH 7.4), 10% sucrose, 100 mM NaCl, 0.1% CHAPS, 2 mM EDTA, 10 μM Ac-IETD-AMC (caspase 8).
(§3) Recombinant caspases were first assayed to determine the optimal concentration for each experiment. Optimal concentrations were based in the linear range of the enzyme activation curves. Peptide inhibitors with known IC50 values were tested together with the compounds as a control for each caspase assay. […] Peptide and nonpeptide inhibitors were dissolved in DMSO, and a 2 serial dilution was performed prior to screening in order to obtain desired concentrations. 10 μL was added to each well containing 100 μL caspase solution and allowed to incubate on ice for 30 min. […] The final concentration of DMSO in all wells was 5% of the total volume. In caspase-1 and caspase-7 assays, 10 mM 2-mercaptoethanol was added to the substrate solution for full activation of the enzymes.
(§4) Compounds were tested in duplicate, and IC50 curves were calculated for all inhibitors assayed. Final IC50s were the average of three independent experiments.

caspase 1 = target: T4, caspase 1 (Homo sapiens, UniProt P29466); assay: Enzyme inhibition assay, caspase 1 (fluorogenic Ac-YVAD-AMC); format: biochemical
T4 construct: purchased BIOMOL Research Laboratories (Plymouth Meeting, Pa.)
T4 sequence (P29466 120-297 limits assumed): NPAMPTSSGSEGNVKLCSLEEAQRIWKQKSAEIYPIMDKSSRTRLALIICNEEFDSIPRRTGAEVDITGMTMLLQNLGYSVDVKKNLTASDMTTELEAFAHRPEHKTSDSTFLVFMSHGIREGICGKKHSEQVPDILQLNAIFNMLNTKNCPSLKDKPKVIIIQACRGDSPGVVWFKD
T4 sequence (P29466 317-404 limits assumed): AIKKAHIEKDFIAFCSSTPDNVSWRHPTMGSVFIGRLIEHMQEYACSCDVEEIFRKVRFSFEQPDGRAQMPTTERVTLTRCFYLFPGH
Method: as §1, §2, §3, §4

caspase 8 = target: T5, caspase 8 (Homo sapiens, UniProt Q14790); assay: Enzyme inhibition assay, caspase 8 (fluorogenic Ac-IETD-AMC); format: biochemical
T5 construct: purchased Sigma-Aldrich (St. Louis, Mo.)
T5 sequence (Q14790 217-374 limits assumed): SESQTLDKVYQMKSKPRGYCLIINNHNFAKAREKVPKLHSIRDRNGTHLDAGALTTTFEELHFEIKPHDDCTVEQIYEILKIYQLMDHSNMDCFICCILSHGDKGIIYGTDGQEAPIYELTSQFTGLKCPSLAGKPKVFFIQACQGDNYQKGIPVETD
T5 sequence (Q14790 385-479 limits assumed): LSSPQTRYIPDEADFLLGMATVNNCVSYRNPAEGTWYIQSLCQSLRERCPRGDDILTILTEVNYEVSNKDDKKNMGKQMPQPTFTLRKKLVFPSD
Method: as §1, §2, §3, §4

[1] = Table 4, read-out: IC50 (nM) caspase-7
[2] = Table 4, read-out: IC50 (nM) caspase-3
[3] = Table 5, read-out: IC50 (nM) caspase-7
[4] = Table 5, read-out: IC50 (nM) caspase-3
[5] = Table 2, read-out: IC50 (nM) Caspase 7
[6] = Table 2, read-out: IC50 (nM) Caspase 3
[7] = Table 2, read-out: IC50 (nM) Caspase 6
[8] = Table 2, read-out: IC50 (nM) Caspase 1
[9] = Table 7, read-out: IC50 (nM) Casp-1
[10] = Table 2, read-out: IC50 (nM) Caspase 8
[11] = Table 7, read-out: IC50 (nM) Casp-8

Compound `O=C1C(=O)N(Cc2cccc(F)n2)c2ccc(S(=O)(=O)N3CCC[C@H]3COc3ccccc3)cc21` [Compound 11i, (S)-1-(6-Fluoro-pyridin-2-yl-methyl)-5-(2-phenoxymethyl-pyrrolidine-1-sulfonyl)-1H-indole-2,3-dione] has a melting point of 128.6 to 129.4 °C, an IC50 (caspase 7; [1]) of 22.2 ± 4 nM and an IC50 (caspase-3; [2]) of 9.1 ± 1.8 nM.

In the case of `O=C1Nc2ccc(S(=O)(=O)N3CC[C@H]3COc3ccccc3)cc2C1=O` [Compound 17, (S)-5-(2-Phenoxymethyl-azetidine-1-sulfonyl)-1H-indole-2,3-dione], the melting point is reported as 173.2 to 174.5 °C, the IC50 (caspase 7; [3]) is reported as 1350 ± 141 nM and the “fold less potent for inhibiting caspase-7” value (caspase 7; relative to the corresponding pyrrolidine analogue 10) is reported as greater than 2 fold. For the same compound, the IC50 (caspase-3; [4]) was 287 ± 24.7 nM.

For `O=C1C(=O)N(Cc2ccccc2)c2ccc(S(=O)(=O)N3CC[C@H]3COc3ccccc3)cc21` [Compound 18b, (S)-1-Benzyl-5-(2-phenoxymethyl-azetidine-1-sulfonyl)-1H-indole-2,3-dione], the melting point was 157.1 to 158.9 °C, the IC50 (caspase 7; [3]) was 29.5 ± 4.9 nM and the IC50 (caspase-3; [4]) was 9.7 ± 1.6 nM.

With `COc1ccc(CN2C(=O)C(=O)c3cc(S(=O)(=O)N4CC[C@H]4COc4ccccc4)ccc32)cc1` [Compound 18c, (S)-1-(4-Methoxybenzyl)-5-(2-phenoxymethyl-azetidine-1-sulfonyl)-1H-indole-2,3-dione] the melting point was 159.8 to 161.5 °C, the IC50 (caspase 7; [3]) was 23.2 ± 3 nM and the IC50 (caspase-3; [4]) was 8.4 ± 1.2 nM.

In the case of `O=C1C(=O)N(Cc2ccc(F)cc2)c2ccc(S(=O)(=O)N3CCC[C@H]3COc3ccccc3)cc21` [Compound 11c, (S)-1-(4-Fluorobenzyl)-5-(2-phenoxymethyl-pyrrolidine-1-sulfonyl)-1H-indole-2,3-dione], the melting point is reported as 74.5 to 75.4 °C.

Compound `O=C1C(=O)N(Cc2ccccc2F)c2ccc(S(=O)(=O)N3CC[C@H]3COc3ccccc3)cc21` [Compound 18f, (S)-1-(2-Fluorobenzyl)-5-(2-phenoxymethyl-azetidine-1-sulfonyl)-1H-indole-2,3-dione] has a melting point of 147.1 to 148 °C, an IC50 (caspase 7; [3]) of 26 ± 5.2 nM and an IC50 (caspase-3; [4]) of 9.4 ± 0.3 nM.

With `CN1C(=O)C(=O)c2cc(S(=O)(=O)N3CC[C@H]3COc3ccccc3)ccc21` [Compound 18a, (S)-1-Methyl-5-(2-phenoxymethyl-azetidine-1-sulfonyl)-1H-indole-2,3-dione] the melting point was 173.5 to 174.9 °C, the IC50 (caspase 7; [3]) was 362.5 ± 3.5 nM and the IC50 (caspase-3; [4]) was 91.7 ± 7.6 nM.

With `O=C1C(=O)N(Cc2cccc(F)n2)c2ccc(S(=O)(=O)N3CC[C@H]3COc3ccccc3)cc21` [Compound 18i, (S)-1-(6-Fluoropyridin-2-yl-methyl)-5-(2-phenoxymethylazetidine-1-sulfonyl)-1H-indole-2,3-dione] the melting point was 144.7 to 146.1 °C, the IC50 (caspase 7; [3]) was 22.7 ± 3.1 nM and the IC50 (caspase-3; [4]) was 5.8 ± 1 nM.

In the case of `O=C1C(=O)N(Cc2ccc(F)nc2)c2ccc(S(=O)(=O)N3CC[C@H]3COc3ccccc3)cc21` [Compound 18g, (S)-1-(6-Fluoropyridin-3-ylmethyl)-5-(2-phenoxymethylazetidine-1-sulfonyl)-1H-indole-2,3-dione], the melting point is reported as 176.8 to 178.3 °C, the IC50 (caspase 7; [3]) is reported as 17 ± 3 nM and the IC50 (caspase-3; [4]) is reported as 10.9 ± 1.4 nM.

`O=C1C(=O)N(Cc2ccc(F)cc2)c2ccc(S(=O)(=O)N3CC[C@H]3COc3ccccc3)cc21` [Compound 18e, (S)-1-(4-Fluorobenzyl)-5-(2-phenoxymethyl-azetidine-1-sulfonyl)-1H-indole-2,3-dione] gave a melting point of 164.6 to 165.7 °C, an IC50 (caspase 7; [3]) of 21 ± 5.6 nM and an IC50 (caspase-3; [4]) of 8.8 ± 1.4 nM.

`N#CC(C#N)=C1C(=O)N(Cc2ccc(O)cc2)c2ccc(S(=O)(=O)N3CCC[C@H]3COc3ccccc3)cc21` [Compound 27c] showed an IC50 (caspase 7; [5]) of 126 ± 19 nM, an IC50 (caspase 7; Table 7, read-out: IC50 (nM) Casp-7) of 126 ± 19.3 nM and an IC50 (caspase 7; read-out: IC50 for caspase-7) of 126 nM. The IC50 (caspase-3; [6]) was 31.8 ± 6.2 nM, the IC50 (caspase-3; Table 7, read-out: IC50 (nM) Casp-3) was 31.8 ± 6.2 nM and the IC50 (caspase-3; read-out: IC50 for caspase-3) was 31.8 nM. It also gave an IC50 (caspase 6; [7]) of 744 ± 48 nM, an IC50 (caspase 6; Table 7, read-out: IC50 (nM) Casp-6) of 744 ± 48 nM and an IC50 (caspase 1; [8]) of 2300 nM. The IC50 (caspase 1; [9]) was 2300 ± 250 nM, the IC50 (caspase 8; [10]) was greater than 50000 nM and the IC50 (caspase 8; [11]) was greater than 50000 nM.

In the case of `N#CC(C#N)=C1C(=O)Nc2ccc(S(=O)(=O)N3CC[C@H]3COc3ccccc3)cc21` [WC-II-54], the IC50 (caspase 7; [5]) is reported as 2380 nM, the IC50 (caspase-3; [6]) is reported as 283 ± 15 nM and the IC50 (caspase 6; [7]) is reported as 540 ± 44 nM. The IC50 (caspase 1; [8]) was 2380 nM and the IC50 (caspase 8; [10]) was greater than 50000 nM.

`O=C1C(=O)N(Cc2ccc(F)cc2)c2ccc(S(=O)(=O)N3CCCC3COc3cccnc3)cc21` (centres unmarked) [Compound 21e, 1-(4-Fluorobenzyl)-5-(2-(pyridin-3-yl-oxymethyl)-pyrrolidine-1-sulfonyl)-1H-indole-2,3-dione] gave an IC50 (caspase 7; Table 6, read-out: IC50 (nM) caspase-7) of 15.1 ± 0.1 nM, an IC50 (caspase-3; Table 6, read-out: IC50 (nM) caspase-3) of 8.4 ± 2 nM and an IC50 (caspase 6; Table 6, read-out: IC50 (nM) caspase-6) greater than 5000 nM. It also gave an IC50 (caspase 1; Table 6, read-out: IC50 (nM) caspase-1) greater than 10000 nM and an IC50 (caspase 8; Table 6, read-out: IC50 (nM) caspase-8) greater than 50000 nM.

`O=C1C(=O)N(Cc2ccnc(F)c2)c2ccc(S(=O)(=O)N3CC[C@H]3COc3ccccc3)cc21` [Compound 18h, (S)-1-(2-Fluoropyridin-4-yl-methyl)-5-(2-phenoxymethylazetidine-1-sulfonyl)-1H-indole-2,3-dione] gave a melting point of 159 to 159.9 °C, an IC50 (caspase 7; [3]) of 135 ± 7.1 nM and an IC50 (caspase-3; [4]) of 29.2 ± 5.2 nM.

With `O=C1C(=O)N(Cc2ccccc2)c2ccc(S(=O)(=O)N3CCC[C@H]3COc3ccccc3)cc21` [Compound 2, (S)-1-Benzyl-5-(2-phenoxymethyl-pyrrolidine-1-sulfonyl)-1H-indole-2,3-dione] the melting point was 97.2 to 99.1 °C, the IC50 (caspase 7; [1]) was 28 ± 0.7 nM and the IC50 (caspase-3; [2]) was 12.2 ± 0.3 nM.

In the case of `O=C1Nc2ccc(S(=O)(=O)N3CC[C@H]3COc3ccccc3)cc2C1=NO` [WC-II-52], the IC50 (caspase 7; [5]) is reported as greater than 50000 nM, the IC50 (caspase-3; [6]) is reported as greater than 20000 nM and the “potency as caspase-3/7 inhibitors (in words)” value (caspase-3; caspase-3/7) is reported as “low potency”. It also gave an IC50 (caspase 6; [7]) greater than 20000 nM, an IC50 (caspase 1; [8]) greater than 50000 nM and an IC50 (caspase 8; [10]) greater than 50000 nM.

Work on `CSc1ccc(CN2C(=O)C(=O)c3cc(S(=O)(=O)N4CC[C@H]4COc4ccccc4)ccc32)cc1` [Compound 18d, (S)-1-(4-Methylthiobenzyl)-5-(2-phenoxymethyl-azetidine-1-sulfonyl)-1H-indole-2,3-dione] yielded a melting point of 167.6 to 169.2 °C, an IC50 (caspase 7; [3]) of 26.7 ± 7.2 nM and an IC50 (caspase-3; [4]) of 11.3 ± 1.2 nM.

In the case of `O=C1C(=O)N(Cc2ccc(O)cc2)c2ccc(S(=O)(=O)N3CCCC3COc3cccnc3)cc21` (centres unmarked) [Compound 28b, 1-(4-Hydroxy-benzyl)-5-[2-(pyridin-3-yl-oxymethyl)-pyrrolidine-1-sulfonyl]-1H-indole-2,3-dione], the IC50 (caspase 7; IC50 (nM) Casp-7, Table 7) is reported as 11.7 ± 1 nM, the IC50 (caspase-3; IC50 (nM) Casp-3, Table 7) is reported as 3.9 ± 0.6 nM and the IC50 (caspase 6) is reported as 9550 ± 354 nM. It also gave an IC50 (caspase 1; [9]) greater than 15000 nM and an IC50 (caspase 8; [11]) greater than 50000 nM.

For `O=C1C(=O)N(Cc2ccnc(F)c2)c2ccc(S(=O)(=O)N3CCC[C@H]3COc3ccccc3)cc21` [Compound 11h, (S)-1-(2-Fluoro-pyridin-4-yl-methyl)-5-(2-phenoxymethyl-pyrrolidine-1-sulfonyl)-1H-indole-2,3-dione], the melting point was 180.1 to 181.9 °C, the IC50 (caspase 7; [1]) was 58 ± 2.8 nM and the IC50 (caspase-3; [2]) was 21.3 ± 3.2 nM.

With `CSc1ccc(CN2C(=O)C(=O)c3cc(S(=O)(=O)N4CCC[C@H]4COc4ccccc4)ccc32)cc1` [Compound 11d, (S)-1-(4-Methylthiobenzyl)-5-(2-phenoxymethyl-pyrrolidine-1-sulfonyl)-1H-indole-2,3-dione] the melting point was 175.4 to 176.8 °C.

In the case of `COc1ccc(CN2C(=O)C(=C(C#N)C#N)c3cc(S(=O)(=O)N4CC[C@H]4COc4cccnc4)ccc32)cc1` [WC-II-87], the IC50 (caspase 7; [5]) is reported as 50 ± 11.6 nM, the IC50 (caspase-3; [6]) is reported as 6 ± 0.8 nM and the IC50 (caspase 6; [7]) is reported as 450 ± 43 nM. The IC50 (caspase 1; [8]) was 3600 nM and the IC50 (caspase 8; [10]) was greater than 50000 nM.
